According to patent publication US12673041B2, “4-aminobut-2-enamide derivatives and salt thereof” (TAIHO PHARMACEUTICAL CO., LTD., priority 2019, dated 2026):
Where two headings read alike, the source gives them in different places.

How the values were obtained:
Assay type in all cases: cell-based
[1] = molecular target: T1, activated KRAS in MIA PaCa-2 (Homo sapiens, UniProt P01116, G12C); assay: Amount of activated KRAS on KRAS-G12C mutant cell line MIA PaCa-2 (Ras GTPase Chemi ELISA); settings: for IC50: 1 hour with compound
T1 construct: host or cells: MIA PaCa-2
Procedure: NCI-H358 [H358, H358] (ATCC® CRL5807™), which is a KRAS-G12C mutant human lung cancer cell line, and MIA PaCa-2 (ATCC® CRL-1420™), which is a KRAS-G12C mutant human pancreas cancer cell line, were suspended in a 10% fetal bovine serum-containing RPMI1640 medium (manufactured by Thermo Fischer SCIENTIFIC), respectively. The cell suspension was seeded into a cell culture plate and cultured in an incubator containing 5% CO2 gas at 37° C. for 1 day. The lyophilized recombinant human EGF protein (R&D systems, Cat #: 236-EG-200) was dissolved in PBS to make 0.5 mg/ml solution. The EGF solution in PBS was diluted by 0.4% with the medium used for suspending cells and added to each cell-culture plate to give an EGF final concentration of 100 ng/ml, followed by leaving to stand at ambient temperature for 5 minutes. Then, the compounds obtained in the “Preparation of Compounds” section were used as test compounds and were dissolved in DMSO, and each test compound was diluted with DMSO to give a concentration 200 times the final concentration. The solution of the test compound in DMSO was diluted with the medium used for suspending cells and added to each well of the cell-culture plate to give a DMSO final concentration of 0.5%, followed by culture in an incubator containing 5% CO2 gas at 37° C. for another 1 hour. The amount of activated KRAS after 1 hour culture in the presence of the compound was measured using Ras GTPase Chemi ELISA Kit (manufactured by Active Motif). The ratio of KRAS activity was calculated from the following equation, and the concentration of the test compound at which activity was suppressed to 50% (IC50 (μM)) was determined. […] The Ratio of KRAS activity to control (%)=(T−BG)/(C−BG)×100 • T: the emission intensity in a well into which a test compound was added. • C: the emission intensity in a well into which a test compound was not added. • BG: the emission intensity in a well into which neither a test compound nor a cell suspension was added.

[2] = molecular target: T2, activated KRAS in NCI-H358 (Homo sapiens, UniProt P01116, G12C); assay: Amount of activated KRAS on KRAS-G12C mutant cell line NCI-H358 (Ras GTPase Chemi ELISA); settings: for IC50: 1 hour with compound
T2 construct: host or cells: NCI-H358
Procedure: NCI-H358 [H358, H358] (ATCC® CRL5807™), which is a KRAS-G12C mutant human lung cancer cell line, and MIA PaCa-2 (ATCC® CRL-1420™), which is a KRAS-G12C mutant human pancreas cancer cell line, were suspended in a 10% fetal bovine serum-containing RPMI1640 medium (manufactured by Thermo Fischer SCIENTIFIC), respectively. The cell suspension was seeded into a cell culture plate and cultured in an incubator containing 5% CO2 gas at 37° C. for 1 day. The lyophilized recombinant human EGF protein (R&D systems, Cat #: 236-EG-200) was dissolved in PBS to make 0.5 mg/ml solution. […] Then, the compounds obtained in the “Preparation of Compounds” section were used as test compounds and were dissolved in DMSO, and each test compound was diluted with DMSO to give a concentration 200 times the final concentration. The solution of the test compound in DMSO was diluted with the medium used for suspending cells and added to each well of the cell-culture plate to give a DMSO final concentration of 0.5%, followed by culture in an incubator containing 5% CO2 gas at 37° C. for another 1 hour. The amount of activated KRAS after 1 hour culture in the presence of the compound was measured using Ras GTPase Chemi ELISA Kit (manufactured by Active Motif). The ratio of KRAS activity was calculated from the following equation, and the concentration of the test compound at which activity was suppressed to 50% (IC50 (μM)) was determined. […] The Ratio of KRAS activity to control (%)=(T−BG)/(C−BG)×100 • T: the emission intensity in a well into which a test compound was added. • C: the emission intensity in a well into which a test compound was not added. • BG: the emission intensity in a well into which neither a test compound nor a cell suspension was added.

MIA PaCa-2 cells = assay: Growth inhibition activity on KRAS-G12C mutant cell line (MIA PaCa-2); settings: Homo sapiens, 72 h; MIA PaCa-2, 3-day culture, CellTiter-Glo 3D
Summary of the method: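 KRAS-G12C human pancreatic MIA PaCa-2 cells in RPMI1640 + 10% FBS, seeded in U-bottom plates and grown 1 day, then exposed to compound (0.2% DMSO final) for 3 days at 37 °C, 5% CO2. Viability by CellTiter-Glo 3D luminescence; IC50 from inhibition relative to untreated wells.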

[3] = MIA PaCa-2, with EGF 100 ng/ml, read-out: IC50 MIA PaCa-2 with EGF
[4] = MIA PaCa-2, without EGF, read-out: IC50 MIA PaCa-2 without EGF
[5] = NCI-H358, with EGF 100 ng/ml, read-out: IC50 NCI-H358 with EGF
[6] = NCI-H358, without EGF, read-out: IC50 NCI-H358 without EGF

T1 sequence (P01116 1-188 isoform P01116-2 G12C): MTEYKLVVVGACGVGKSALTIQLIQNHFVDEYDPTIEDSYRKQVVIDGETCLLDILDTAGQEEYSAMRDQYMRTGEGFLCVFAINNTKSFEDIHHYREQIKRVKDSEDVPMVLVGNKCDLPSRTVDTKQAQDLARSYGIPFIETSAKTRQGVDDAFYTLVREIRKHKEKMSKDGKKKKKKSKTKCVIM
T2 sequence (P01116 1-188 isoform P01116-2 G12C): as above

IC50 [1, 3] [nM] | IC50 [1, 4] [nM] | IC50 [2, 5] [nM] | IC50 [2, 6] [nM] | IC50 (MIA PaCa-2 cells) [nM] | Compound | KRAS inhibition activity under EGF treatment ([1]; MIA PaCa-2, EGF treatment) | KRAS inhibition activity under EGF treatment ([2]; NCI-H358, EGF treatment)
1000 | 780 | 850 | 750 |  | CCc1nc2cc(-c3cccc(NC(=O)c4ccc(NC(=O)/C=C/CN[C@H]5CC[C@H](OC)CC5)c(C#N)c4)c3)c(C(F)(F)F)cc2n1C [Example 1, 3-cyano-N-(3-(2-ethyl-1-methyl-6-(trifluoromethyl)-1H-benzo[d]imidazol-5-yl)phenyl)-4-((E)-4-(((1r, 4r)-4-methoxycyclohexyl)amino)but-2-enamido)benzamide] |  | 
440 | 300 | 470 | 390 | 140 | CO[C@H]1CC[C@H](NC/C=C/C(=O)Nc2ccc(C(=O)c3ccc4c(-c5cc6ncn(C)c6cc5C)cccn34)cc2C#N)CC1 [Example 4, (E)-N-(2-cyano-4-(8-(1,6-dimethyl-1H-benzo[d]imidazol-5-yl)indolizine-3-carbonyl)phenyl)-4-(((1r,4r)-4-methoxycyclohexyl)amino)but-2-enamide] |  | 

Compound | IC50 [1, 3] [nM] | IC50 [1, 4] [nM] | IC50 [2, 5] [nM] | IC50 [2, 6] [nM] | IC50 (MIA PaCa-2 cells) [nM] | KRAS inhibition activity under EGF treatment ([1]; MIA PaCa-2, EGF treatment) | KRAS inhibition activity under EGF treatment ([2]; NCI-H358, EGF treatment)
C=CC(=O)N1CCN(c2ncnc3c(F)c(-c4c(O)cccc4F)c(Cl)cc23)CC1 [ARS-1620, reference compound] | 4200 | 650 | 5400 | 1400 |  | attenuated by EGF treatment | attenuated by EGF treatment
